Like-named read-outs stand apart in the source and are kept apart here.
Key:
[1] = tested on: GKV-4046 HIV-1; assay: Inhibition of HIV-1 replication in MT-4 cell culture (p24 accumulation, cell viability by MTT); assay type: cell-based, type 1 human immunodeficiency virus; conditions: MT-4 cells
Method: Inhibition of HIV replication was studied by cultivating pre-infected lymphoid cells of MT-4 cell line in the presence of the investigational compounds in the concentration of 0.001-100 µg per 1 ml of culture medium during one passage, i.e. 4 days.
Inhibition of HIV replication in a sensitive cell culture is assessed by the reduction of p24 virus-specific protein accumulation (according to immunoenzyme assay) as well as by the increase of cell viability in the presence of the drug as compared to the control on the 4th day of cultivation using bromide 3-(4,5-dimethylthiasol-2-yl)-2,5-diphenuyltetrasolium (MTT).
The effect of the investigational compounds of HIV-1 replication in MT-4 cell culture was studied using a known method.
The therapeutic index, or the index of selectivity (IS), is calculated as the ratio of 50% toxic concentration of a compound to its 50% effective dose (the results are presented in table 1).

[2] = Pharmacokinetics of generated AZT in dog blood after oral administration; assay type: in vivo
Method: A dog weighing 12 kg was orally given 250 mg of the investigational compound (mixed with curd). Blood samples (1 ml) were taken at defined intervals from the femoral vein. The samples were centrifuged (10 minutes at 2000 rpm) and the supernatant was separated. Oxetan (internal standard, 0.25 […]g) and methanol (0.75 ml) were added to aliquots of the supernatant (0.25 ml). The resulting mixture was centrifuged for 3 minutes at 5000 rpm. The supernatant was separated and evaporated in air flow at 40° C., water (1 ml) was added to the residue. Aliqutes (20[…]1) were analyzed by HPLC in Gynkotec chromatograph (Germany) using Ultrasphere ODC Beckman analytical column (USA). Eluent: 6% acetonitrile in 0.1% H3PO4 (pH 2.1) in the presence of 0.15% triethylamine; detection at […]max 265 nm at 30° C.

With “5′-Aminocarbonylphosphonyl-3′-azido-3′-deoxythymidine [Ie]” the “IS (index of selectivity, ratio of 50% toxic concentration to 50% effective dose)” value [1] was greater than 3000.
With “5′-Chloromethylphosphonyl-3′-azido-3′-deoxythymidine [Ia]” the “IS (index of selectivity, ratio of 50% toxic concentration to 50% effective dose)” value [1] was greater than 3000.
In the case of “5′-Hydroxymethylphosphonyl-3′-azido-3′-deoxythymidine [Ic]”, the “IS (index of selectivity, ratio of 50% toxic concentration to 50% effective dose)” value [1] is reported as greater than 1600.
For “5′-Iodomethylphosphonyl-3′-azido-3′-deoxythymidine [Ib]”, the “IS (index of selectivity, ratio of 50% toxic concentration to 50% effective dose)” value [1] was greater than 100.
In the case of “5′-Methoxymethylphosphonyl-3′-azido-3′-deoxythymidine”, the “IS (index of selectivity, ratio of 50% toxic concentration to 50% effective dose)” value [1] is reported as greater than 100.
For Cc1cn([C@H]2C[C@H](N=[N+]=[N-])[C@@H](CO)O2)c(=O)[nH]c1=O [AZT, 3′-azido-3′-deoxythymidine], the half-life ([2]; in vivo, of azidothymidine, oral, amount equivalent to 250 mg of AZT) was 5.2 h, the AUC ([2]; in vivo, of azidothymidine, oral, amount equivalent to 250 mg of AZT, read-out: AUC) was 58800 ng·h/mL and the Cmax ([2]; in vivo, of azidothymidine, oral, amount equivalent to 250 mg of AZT, read-out: Cmax) was 9770 ng/mL. It also gave an MRT ([2]; in vivo, of azidothymidine, oral, amount equivalent to 250 mg of AZT, read-out: MRT) of 7.5 h, a Tmax ([2]; in vivo, of azidothymidine, oral, amount equivalent to 250 mg of AZT, read-out: Tmax) of 2.5 h and a CL ([2]; of azidothymidine, oral, amount equivalent to 250 mg of AZT) of 4.2 L/h.
Work on Cc1cn([C@H]2C[C@H](N=[N+]=[N-])[C@@H](CO[PH](=O)O)O2)c(=O)[nH]c1=O [Nikavir, 5′-hydrohenphosphonate of 3′-azido-2′,3′-dideoxythymidine] yielded an AUC ([2]; in vivo, po, 250 mg) of 16600 ng·h/mL, a CL ([2]; in vivo, po, 250 mg) of 15.0 L/h and a Cmax ([2]; in vivo, po, 250 mg) of 1890 ng/mL. The MRT ([2]; in vivo, po, 250 mg) was 10.4 h, the T1/2 ([2]; in vivo, po, 250 mg) was 7.2 h and the Tmax ([2]; in vivo, po, 250 mg) was 4.0 h. The “IS (index of selectivity, ratio of 50% toxic concentration to 50% effective dose)” value [1] was 2015.
